The subject of one series is Bombyx mori. Briefly: Inhibition of leucine uptake in Bombyx mori larval midgut brush border membrane vesicles at 0.2 uM. It is filed as functional.
Series [1] in a line: Toxicity against Artemia salina. Conditions: in vivo. It is filed as organism-based.

In the series on Bombyx mori, `C=C(C)c1cc2c(=O)c3c(O)cc4c(c3oc2c2c1C(O)(C(=O)OC)CC2=O)C=CC(C)(C)O4` (configuration not stated) [ARTOINDONESIANIN C] displayed an inhibition of 20%. This compound registered an LC50 in series [1] of over 500 µg/mL.
